Experimental data as given in patent US11000033B2, “Ketone or oxime compound, and herbicide” (NISSAN CHEMICAL CORPORATION, priority 2014, dated 2021).

Assays:
Type in all cases: in vivo
[1] = system: beet; assay: Test Example 4: effect on crop by soil treatment (symbol f); settings: for Effect on crop grade, f: beet / f (beet) effect on crop grade: application herbicide amount 320 g/ha; for f: beet, effect grade on crop: 320 g/ha
Method in brief: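 Sterilized diluvial soil, spot sowing, ~1.5 cm soil cover; greenhouse 25–30° C.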

[2] = system: wheat; assay: Test Example 5: effect on crop by foliage application, plastic box (symbol e); settings: 320 g/ha, 3 weeks after application
Method in brief: (§1)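 Sterilized diluvial soil, plastic box (21 × 13 × 7 cm); spot sowing, ~1.5 cm soil cover; greenhouse 25–30° C.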

[3] = system: Setaria viridis; assay: Test Example 5: herbicidal effect by foliage application, plastic box (symbol G); settings: 320 g/ha, 3 weeks after application
Method in brief: (§2)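 Greenhouse foliar test: seedlings at 14 days, grown 25° C. to 30° C. in sterilized diluvial soil; compound applied as an aqueous dilution of an emulsion; response read 3 weeks after spraying.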

[4] = system: Amaranthus retroflexus; assay: Test Example 4: herbicidal effect by soil treatment (symbol N); settings: for Herbicidal effect grade, N: Amaranthus retroflexus / N (Amaranthus retroflexus) herbicidal effect grade: application herbicide amount 320 g/ha; for N: Amaranthus retroflexus, herbicidal effect grade: 320 g/ha
Method in brief: (§3)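 Seeds were sown in sterilized diluvial soil, covered with about 1.5 cm of soil, and the soil surface was sprayed with a water-diluted emulsion of the compound at a predetermined rate. Plants grew in a greenhouse at 25° C. to 30° C.; effects were scored visually 3 weeks after application.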

[5] = system: Echinochloa crus-galli var. crus-galli; assay: Test Example 4: herbicidal effect by soil treatment (symbol H); settings: for Herbicidal effect grade, H: Echinochloa crus-galli var. crus-galli / H (Echinochloa crus-galli var. crus-galli) herbicidal effect grade: application herbicide amount 320 g/ha; for H: Echinochloa crus-galli var. crus-galli, herbicidal effect grade: 320 g/ha
Method in brief: as §3

[6] = system: Scirpus juncoides; assay: Test Example 1: herbicidal activity, application before weed generation in submerged conditions (symbol B); settings: application herbicide amount 320 g/ha
Method in brief: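 Steps: alluvial soil flooded to 4 cm; weed seeds sown together; rice seedlings (2.5 leaf) transplanted; diluted emulsion applied to water surface the same day as sowing; plants grown at 25–30 °C in greenhouse; herbicidal effect rated on a 0–5 scale at 3 weeks.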

[7] = system: soybean; assay: Test Example 5: effect on crop by foliage application, plastic box (symbol d); settings: 320 g/ha, 3 weeks after application
Method in brief: as §1

[8] = system: Veronica persica; assay: Test Example 4: herbicidal effect by soil treatment (symbol R); settings: for Herbicidal effect grade, R: Veronica persica / R (Veronica persica) herbicidal effect grade: application herbicide amount 320 g/ha; for R: Veronica persica, herbicidal effect grade: 320 g/ha
Method in brief: as §3

[9] = system: Leptochloa chinensis; assay: Test Example 3: herbicidal effect by foliage application, Wagner pot (symbol D); settings: application herbicide amount 320 g/ha; for D (Leptochloa chinensis) herbicidal effect grade: Table 24
Method in brief: (§4)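 Foliar spray of water-diluted emulsion formulation at a predetermined herbicide amount onto 14-day-old plants in flooded alluvial soil (water depth 0.1–0.5 cm), greenhouse 25–30 °C; rice sown alongside. Scored 3 wk post-application on set criteria.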

[10] = system: transplanted rice plant; assay: Test Example 1: effect on crop, application before weed generation in submerged conditions (symbol a); settings: application herbicide amount 320 g/ha
Method in brief: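 Rice at 2.5 leaf stage transplanted into submerged soil (4 cm depth) sown with three weed species; herbicide applied before weed emergence.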

[11] = system: Lolium multiflorum Lam.; assay: Test Example 4: herbicidal effect by soil treatment (symbol K); settings: for Herbicidal effect grade, K: Lolium multiflorum Lam. / K (Lolium multiflorum Lam.) herbicidal effect grade: application herbicide amount 320 g/ha; for K: Lolium multiflorum Lam., herbicidal effect grade: 320 g/ha
Method in brief: as §3

[12] = system: corn; assay: Test Example 4: effect on crop by soil treatment (symbol c); settings: for Effect on crop grade, c: corn / c (corn) effect on crop grade: application herbicide amount 320 g/ha; for c: corn, effect grade on crop: 320 g/ha
Method in brief: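 Soil-treatment setup: crop and weed seeds were spot-sown into sterilized diluvial soil, then buried beneath approximately 1.5 cm of it, and the boxes were housed in a 25–30° C. greenhouse.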

[13] = system: Veronica persica; assay: Test Example 5: herbicidal effect by foliage application, plastic box (symbol R); settings: 320 g/ha, 3 weeks after application
Method in brief: as §2

[14] = system: Cyperus difformis; assay: Test Example 3: herbicidal effect by foliage application, Wagner pot (symbol E); settings: application herbicide amount 320 g/ha; for E herbicidal effect grade: Table 24
Method in brief: as §4

Row | Structure (SMILES) | Effect on crop grade, f: beet [1] | e: wheat, effect on crop grade [2] | G: Setaria viridis, herbicidal effect grade [3] | Herbicidal effect grade, N: Amaranthus retroflexus [4] | Herbicidal effect grade, H: Echinochloa crus-galli var. crus-galli [5] | Herbicidal effect grade, B: Scirpus juncoides [6] | d: soybean, effect on crop grade [7] | Herbicidal effect grade, R: Veronica persica [8] | D (Leptochloa chinensis) herbicidal effect grade [9] | Effect grade on crop, a: transplanted rice plant [10] | Herbicidal effect grade, K: Lolium multiflorum Lam. [11] | Effect on crop grade, c: corn [12] | R: Veronica persica, herbicidal effect grade [13] | E herbicidal effect grade [14] | f: beet, effect grade on crop [1] | e: wheat, effect on crop (criteria 0-5) [2] | G: Setaria viridis, herbicidal effect (criteria 0-5) [3] | N: Amaranthus retroflexus, herbicidal effect grade [4] | herbicidal effect on D (Leptochloa chinensis), grade 0-5 [9] | herbicidal effect on E, grade 0-5 [14] | also measured
1 | CON=C(CC1CC(O)=C(c2c(C)cc(Br)cc2C)C1=O)C(C)C (stereo not drawn) [9-001] | 0 (Herbicidal ratio of 5% or lower (almost no effect)) | 0 (Herbicidal ratio of 5% or lower (almost no effect)) | 4 (Herbicidal ratio of 70% or higher and lower than 90%) | 1 (Herbicidal ratio of 5% or higher and lower than 20%) | 5 (Herbicidal ratio of 90% or more (almost completely withered)) | 0 (Herbicidal ratio of 5% or lower (almost no effect)) | 0 (Herbicidal ratio of 5% or lower (almost no effect)) | 0 (Herbicidal ratio of 5% or lower (almost no effect)) | 4 (Herbicidal ratio of 70% or higher and lower than 90%) | 4 (Herbicidal ratio of 70% or higher and lower than 90%) | 5 (Herbicidal ratio of 90% or more (almost completely withered)) | 0 (Herbicidal ratio of 5% or lower (almost no effect)) | 0 (Herbicidal ratio of 5% or lower (almost no effect)) | 2 (Herbicidal ratio of 20% or higher and lower than 40%) |  |  |  |  |  |  | 
2 | CON=C(C)CC1CC(OC(=O)C=Cc2ccco2)=C(c2c(C)cc(C)cc2C)C1=O (stereo not drawn) [1-091] |  |  |  |  |  | 5 (Herbicidal ratio of 90% or more (almost completely withered)) |  |  |  | 4 (Herbicidal ratio of 70% or higher and lower than 90%) |  |  |  |  | 0 (Herbicidal ratio of 5% or lower (almost no effect)) | 5 (Herbicidal ratio of 90% or more (almost completely withered)) | 5 (Herbicidal ratio of 90% or more (almost completely withered)) | 0 (Herbicidal ratio of 5% or lower (almost no effect)) | 5 (Herbicidal ratio of 90% or more (almost completely withered)) | 5 (Herbicidal ratio of 90% or more (almost completely withered)) | H: Echinochloa crus-galli var. crus-galli, herbicidal effect grade [5]: 5 (Herbicidal ratio of 90% or more (almost completely withered)); d: soybean, effect on crop (criteria 0-5) [7]: 1 (Herbicidal ratio of 5% or higher and lower than 20%); R: Veronica persica, herbicidal effect grade [8]: 0 (Herbicidal ratio of 5% or lower (almost no effect)); K: Lolium multiflorum Lam., herbicidal effect grade [11]: 5 (Herbicidal ratio of 90% or more (almost completely withered)); c: corn, effect grade on crop [12]: 5 (Herbicidal ratio of 90% or more (almost completely withered)); R: Veronica persica, herbicidal effect (criteria 0-5) [13]: 1 (Herbicidal ratio of 5% or higher and lower than 20%)
3 | CON=C(CC1CC(O)=C(c2c(C)cc(-n3cc(Cl)cn3)cc2C)C1=O)C(C)C (stereo not drawn) [9-004] | 0 (Herbicidal ratio of 5% or lower (almost no effect)) | 3 (Herbicidal ratio of 40% or higher and lower than 70%) | 5 (Herbicidal ratio of 90% or more (almost completely withered)) | 0 (Herbicidal ratio of 5% or lower (almost no effect)) | 5 (Herbicidal ratio of 90% or more (almost completely withered)) | 2 (Herbicidal ratio of 20% or higher and lower than 40%) | 0 (Herbicidal ratio of 5% or lower (almost no effect)) | 0 (Herbicidal ratio of 5% or lower (almost no effect)) | 5 (Herbicidal ratio of 90% or more (almost completely withered)) | 5 (Herbicidal ratio of 90% or more (almost completely withered)) | 4 (Herbicidal ratio of 70% or higher and lower than 90%) | 0 (Herbicidal ratio of 5% or lower (almost no effect)) | 0 (Herbicidal ratio of 5% or lower (almost no effect)) | 5 (Herbicidal ratio of 90% or more (almost completely withered)) |  |  |  |  |  |  | 
4 | CC(CC1CC(O)=C(c2c(C)cc(C)cc2C)C1=O)=NOc1ccccc1 (stereo not drawn) [1-057] |  | 0 (Herbicidal ratio of 5% or lower (almost no effect)) | 3 (Herbicidal ratio of 40% or higher and lower than 70%) |  |  | 3 (Herbicidal ratio of 40% or higher and lower than 70%) | 3 (Herbicidal ratio of 40% or higher and lower than 70%) |  |  | 4 (Herbicidal ratio of 70% or higher and lower than 90%) |  |  | 0 (Herbicidal ratio of 5% or lower (almost no effect)) |  |  |  |  |  | 3 (Herbicidal ratio of 40% or higher and lower than 70%) | 3 (Herbicidal ratio of 40% or higher and lower than 70%) | f (beet) effect on crop grade [1]: 0 (Herbicidal ratio of 5% or lower (almost no effect)); N (Amaranthus retroflexus) herbicidal effect grade [4]: 1 (Herbicidal ratio of 5% or higher and lower than 20%); H (Echinochloa crus-galli var. crus-galli) herbicidal effect grade [5]: 4 (Herbicidal ratio of 70% or higher and lower than 90%); R (Veronica persica) herbicidal effect grade [8]: 0 (Herbicidal ratio of 5% or lower (almost no effect)); K (Lolium multiflorum Lam.) herbicidal effect grade [11]: 5 (Herbicidal ratio of 90% or more (almost completely withered)); c (corn) effect on crop grade [12]: 0 (Herbicidal ratio of 5% or lower (almost no effect))
5 | CC(CC1CC(O)=C(c2c(C)cc(C)cc2C)C1=O)=NOC(C)(C)C (stereo not drawn) [1-053] |  | 0 (Herbicidal ratio of 5% or lower (almost no effect)) | 3 (Herbicidal ratio of 40% or higher and lower than 70%) |  |  | 3 (Herbicidal ratio of 40% or higher and lower than 70%) | 3 (Herbicidal ratio of 40% or higher and lower than 70%) |  |  | 5 (Herbicidal ratio of 90% or more (almost completely withered)) |  |  | 2 (Herbicidal ratio of 20% or higher and lower than 40%) |  |  |  |  |  | 5 (Herbicidal ratio of 90% or more (almost completely withered)) | 4 (Herbicidal ratio of 70% or higher and lower than 90%) | f (beet) effect on crop grade [1]: 0 (Herbicidal ratio of 5% or lower (almost no effect)); N (Amaranthus retroflexus) herbicidal effect grade [4]: 0 (Herbicidal ratio of 5% or lower (almost no effect)); H (Echinochloa crus-galli var. crus-galli) herbicidal effect grade [5]: 5 (Herbicidal ratio of 90% or more (almost completely withered)); R (Veronica persica) herbicidal effect grade [8]: 0 (Herbicidal ratio of 5% or lower (almost no effect)); K (Lolium multiflorum Lam.) herbicidal effect grade [11]: 5 (Herbicidal ratio of 90% or more (almost completely withered)); c (corn) effect on crop grade [12]: 1 (Herbicidal ratio of 5% or higher and lower than 20%)
6 | CON=C(C)CC1CC(OC(=O)COc2ccc(C(C)=O)cc2)=C(c2c(C)cc(C)cc2C)C1=O (stereo not drawn) [1-080] |  |  |  |  |  | 5 (Herbicidal ratio of 90% or more (almost completely withered)) |  |  |  | 5 (Herbicidal ratio of 90% or more (almost completely withered)) |  |  |  |  | 0 (Herbicidal ratio of 5% or lower (almost no effect)) | 4 (Herbicidal ratio of 70% or higher and lower than 90%) | 5 (Herbicidal ratio of 90% or more (almost completely withered)) | 5 (Herbicidal ratio of 90% or more (almost completely withered)) | 5 (Herbicidal ratio of 90% or more (almost completely withered)) | 5 (Herbicidal ratio of 90% or more (almost completely withered)) | H: Echinochloa crus-galli var. crus-galli, herbicidal effect grade [5]: 5 (Herbicidal ratio of 90% or more (almost completely withered)); d: soybean, effect on crop (criteria 0-5) [7]: 4 (Herbicidal ratio of 70% or higher and lower than 90%); R: Veronica persica, herbicidal effect grade [8]: 0 (Herbicidal ratio of 5% or lower (almost no effect)); K: Lolium multiflorum Lam., herbicidal effect grade [11]: 5 (Herbicidal ratio of 90% or more (almost completely withered)); c: corn, effect grade on crop [12]: 4 (Herbicidal ratio of 70% or higher and lower than 90%); R: Veronica persica, herbicidal effect (criteria 0-5) [13]: 1 (Herbicidal ratio of 5% or higher and lower than 20%)
